Experimental data: article PMC2770896, “Inhibition of Neuraminidase Inhibitor-Resistant Influenza Virus by DAS181, a Novel Sialidase Fusion Protein” (PLoS ONE, 2009)
Read-outs that look alike come from different tables or passages of the source.

Tests used:
[1] = test system: Human renal cortical epithelial cells; assay: Primary cell cytotoxicity, MTS assay; type: cell-based; conditions: 24 hrs or 72 hrs exposure, DAS181 various concentrations, 0.2% thimerosol, 1 mM CdCl2
From the text: (§1) Primary cryopreserved human renal cells (Proximal Tubule Epethelial and Cortical Epethelial cells) were thawed, plated, and propagated according to Cambrex’s recommended protocol. Both renal cell lines were thawed and plated at a seeding density of 2500 cells/cm^2 with Renal Epethelial Basal Medium (REBM) supplemented with Cambrex REGM SingleQuots® (Cambrex CC-4127); which includes recombinant human epidermal growth factor, insulin, GA-1000, 0.5% Fetal Bovine Serum, hydrocortisone, transferrin, epinephrine, and triiodothyronine (T3). The cells were allowed to adhere and equilibrate for 24 hours at 37°C with 5% CO2. […] All the renal cells were further subcultured and seeded into 10 tissue culture-coated 24 well plates per cell line at a seeding density of 2.5x10^3 cells/cm^2. Once the cells reached approximately 70% confluency the 24 well plates were used in cytotoxicity experiments using the REBM supplemented with the REGM SingleQuots®.
(§2) On Day 0 the cell media supernatants were initially collected for baseline controls, before adding fresh media supplemented with either PBS, DAS181 (indicated concentrations), or thimerosal (0.2%) or CdCl^2 (1mM) to serve as positive controls for cytotoxicity. All treatment groups were done in triplicate. Treatments were left on for either 24 hrs or 72 hrs. Subsequently, for the 24 hr exposure conditions fresh media without test article was added to all the wells every 24 hours on days 1-3 (24-72 hours post-treatment); a subset of the wells were used for MTS assay each day. For the 72 hr exposure conditions the media was only changed at 72 hrs, immediately prior to MTS assay. Renal cell media interfered with Lactate Dehydrogenase (LDH) and Alkaline Phosphatase (ALP) assays so these were not performed.
(§3) At each endpoint (24, 48, or 72 hrs) the old media was first replaced with fresh warm media (500uL/well) and the samples were then tested for cell viability using the CellTiter 96® Aqueous Non-Radioactive Cell Proliferation Assay (MTS) kit (Promega, Madison, WI). […] 100μL of each sample was then added to a 96 well plate and read for absorbance at 490 nm. A 1:5 dilution of MTS solution in growth media alone was used as the background. For data analysis, background values were subtracted from all sample values. Values were then normalized using the vehicle control as 100%. Each sample was compared to the vehicle control, via ANOVA with Bonferroni post-test, to determine if there was a statistically significant change in cell viability.

[2] = test system: Human renal proximal tubule cells; assay: Primary cell cytotoxicity, MTS assay; type: cell-based; conditions: 24 hrs or 72 hrs exposure, DAS181 various concentrations, 0.2% thimerosol, 1 mM CdCl2
From the text: as §1, §2, §3

[3] = test system: A/HongKong/2637/04; type: cell-based, IFV A (H1N1)
[4] = test system: A/HongKong/2765/04; type: cell-based, IFV A (H1N1)
[5] = test system: A/NewJersey/15/07; type: cell-based, IFV A (H1N1)
[6] = test system: A/Hawaii/21/07; type: cell-based, IFV A (H1N1)
[7] = test system: A/St.Louis/539/09; type: cell-based, IFV A (H1N1)
[8] = test system: A/St.Louis/746/09; type: cell-based, IFV A (H1N1)
[9] = test system: A/St.Louis/775/09; type: cell-based, IFV A (H1N1)
[10] = test system: A/St.Louis/758/09; type: cell-based, IFV A (H1N1)
[11] = test system: A/St.Louis/630/09; type: cell-based, IFV A (H1N1)
[12] = test system: A/St.Louis/764/09; type: cell-based, IFV A (H1N1)
[13] = test system: A/St.Louis/690/09; type: cell-based, IFV A (H1N1)
[14] = test system: A/St.Louis/790/09; type: cell-based, IFV A (H1N1)
[15] = test system: A/St.Louis/792/09; type: cell-based, IFV A (H1N1)
[16] = target: NA enzymatic activity of A/Georgia/17/2006 WT (Influenza A virus (H1N1), UniProt A7UPL3); assay: Chemiluminescent neuraminidase activity inhibition (NI) assay; type: biochemical; conditions: for IC50: A/Georgia/17/2006 WT reference virus, mean of triplicate analysis; for R/S: A/Georgia/17/2006 WT, NI assay
Procedure: (§4) The chemiluminescent neuraminidase activity inhibition (NI) assay was conducted using a commercially available kit, NA-Star (Applied Biosystems, Foster City, CA) as previously described. Oseltamivir carboxylate and zanamivir were used at 10 half-log dilutions (0.03 to 1000 nM). Values shown represent mean of triplicate analysis.

[17] = target: NA enzymatic activity of A/Hawaii/21/2007 (Influenza A virus (H1N1), UniProt B1AGI9); assay: as above; type: biochemical, IFV A (H1N1); conditions: for R/S: A/Hawaii/21/2007, NI assay
Procedure: as §4

[18] = target: NA enzymatic activity of A/St.Louis/539/09 (Influenza A virus, UniProt D0FH47); assay: as above; type: biochemical, IFV A (H1N1); conditions: for R/S: NI assay; for IC50: mean of triplicate analysis
Procedure: as §4

[19] = target: NA enzymatic activity of A/St.Louis/630/09 (Influenza A virus, UniProt D0FH48); assay: as above; type: biochemical, IFV A (H1N1); conditions: for R/S: NI assay; for IC50: mean of triplicate analysis
Procedure: as §4

[20] = target: NA enzymatic activity of A/St.Louis/690/09 (Influenza A virus, UniProt D0FH49); assay: as above; type: biochemical, IFV A (H1N1); conditions: for R/S: NI assay; for IC50: mean of triplicate analysis
Procedure: as §4

[21] = target: NA enzymatic activity of A/St.Louis/746/09 (Influenza A virus, UniProt D0FH50); assay: as above; type: biochemical, IFV A (H1N1); conditions: for R/S: NI assay; for IC50: mean of triplicate analysis
Procedure: as §4

[22] = target: NA enzymatic activity of A/St.Louis/764/09 (Influenza A virus, UniProt D0FH52); assay: as above; type: biochemical, IFV A (H1N1); conditions: for R/S: NI assay; for IC50: mean of triplicate analysis
Procedure: as §4

[23] = target: NA enzymatic activity of A/St.Louis/775/09 (Influenza A virus, UniProt D0FH53); assay: as above; type: biochemical, IFV A (H1N1); conditions: for R/S: NI assay; for IC50: mean of triplicate analysis
Procedure: as §4

[24] = target: NA enzymatic activity of A/St.Louis/790/09 (Influenza A virus, UniProt D0FH54); assay: as above; type: biochemical, IFV A (H1N1); conditions: for R/S: NI assay; for IC50: mean of triplicate analysis
Procedure: as §4

[25] = target: NA enzymatic activity of A/St.Louis/792/09 (Influenza A virus, UniProt D0FH55); assay: as above; type: biochemical, IFV A (H1N1); conditions: for R/S: NI assay; for IC50: mean of triplicate analysis
Procedure: as §4

## [Cl][Cd][Cl] [CdCl2, cadmium chloride]
[1]
  Cell viability (MTS) vs PBS: significant reduction in cell viability
[2]
  Cell viability (MTS) vs PBS: significant reduction in cell viability

## CCC(CC)O[C@@H]1C=C(C(=O)O)C[C@H](N)[C@H]1NC(C)=O [oseltamivir, oseltamivir carboxylate]
[3]; read-out: EC50
  EC50: 3270 ± 1320 nM
[4]; read-out: EC50
  EC50: 2.92 ± 1 µM
[5]; read-out: EC50
  EC50: > 400 µM
[6]; read-out: EC50
  EC50: > 285 µM
[7]; read-out: EC50
  EC50: > 400 µM
[8]; read-out: EC50
  EC50: > 400000 nM
[9]; read-out: EC50
  EC50: > 320000 nM
[10]; read-out: EC50
  EC50: > 400 µM
[11]; read-out: EC50
  EC50: > 400 µM
[12]; read-out: EC50
  EC50: > 400 µM
[13]; read-out: EC50
  EC50: > 400 µM
[14]; read-out: EC50
  EC50: > 304 µM
[15]; read-out: EC50
  EC50: > 400 µM
[16]
  IC50: 0.37 nM
  R/S: S
[17]
  R/S: R
[17]; A/Hawaii/21/2007 reference virus, mean of triplicate analysis
  IC50: 110 nM
[18]
  R/S: R
  IC50: 84.9 nM
[19]
  R/S: R
  IC50: 224 nM
[20]
  R/S: R
  IC50: 178 nM
[21]
  R/S: R
  IC50: 89.9 nM
[22]
  R/S: R
  IC50: 103 nM
[23]
  R/S: R
  IC50: 91.8 nM
[24]
  R/S: R
  IC50: 87.8 nM
[25]
  R/S: R
  IC50: 91.5 nM

## C[CH2][Hg][S]c1ccccc1C(=O)[O-].[Na+] [thimerosol]
[1]
  Cell viability (MTS) vs PBS: significant reduction in cell viability
[2]
  Cell viability (MTS) vs PBS: significant reduction in cell viability

## CC(=O)N[C@H]1[C@H]([C@H](O)[C@H](O)CO)OC(C(=O)O)=C[C@@H]1N=C(N)N [zanamivir]
[3]; read-out: EC50
  EC50: 1820 ± 460 nM
[3]; read-out: EC50 Zanamivir
  EC50: 1820 ± 460 nM
[4]; read-out: EC50
  EC50: 4.17 ± 0.53 µM
[4]; read-out: EC50 Zanamivir
  EC50: 4.17 ± 0.53 µM
[5]; read-out: EC50
  EC50: 7.02 ± 2.46 µM
[5]; read-out: EC50 Zanamivir
  EC50: 7.02 ± 2.46 µM
[6]; read-out: EC50
  EC50: 45 ± 22.5 µM
[6]; read-out: EC50 Zanamivir
  EC50: 45 ± 22.5 µM
[7]; read-out: EC50
  EC50: > 332 µM
[7]; read-out: EC50 Zanamivir
  EC50: > 332 µM
[8]; read-out: EC50
  EC50: 1960 ± 420 nM
[8]; read-out: EC50 Zanamivir
  EC50: 1960 ± 420 nM
[9]; read-out: EC50
  EC50: 1200 ± 360 nM
[9]; read-out: EC50 Zanamivir
  EC50: 1200 ± 360 nM
[10]; read-out: EC50
  EC50: 7.06 ± 2.84 µM
[10]; read-out: EC50 Zanamivir
  EC50: 7.06 ± 2.84 µM
[11]; read-out: EC50
  EC50: 62.1 ± 34.8 µM
[11]; read-out: EC50 Zanamivir
  EC50: 62.1 ± 34.8 µM
[12]; read-out: EC50
  EC50: > 273 µM
[12]; read-out: EC50 Zanamivir
  EC50: > 273 µM
[13]; read-out: EC50
  EC50: > 182 µM
[13]; read-out: EC50 Zanamivir
  EC50: > 182 µM
[14]; read-out: EC50
  EC50: 3.12 ± 1.83 µM
[14]; read-out: EC50 Zanamivir
  EC50: 3.12 ± 1.83 µM
[15]; read-out: EC50
  EC50: > 156 µM
[15]; read-out: EC50 Zanamivir
  EC50: > 156 µM
[16]
  IC50: 0.44 nM
  R/S: S
[17]
  R/S: S
[18]
  R/S: S
  IC50: 0.28 nM
[19]
  R/S: S
  IC50: 0.48 nM
[20]
  R/S: S
  IC50: 0.44 nM
[21]
  R/S: S
  IC50: 0.3 nM
[22]
  R/S: S
  IC50: 0.3 nM
[23]
  R/S: S
  IC50: 0.33 nM
[24]
  R/S: S
  IC50: 0.29 nM
[25]
  R/S: S
  IC50: 0.28 nM
